Experiment in all cases: PTP Assay
Assay [1] concerns the target T1, Tyrosine-protein phosphatase non-receptor type 1 (Homo sapiens, UniProt P18031).
T1 sequence (P18031 whole entry): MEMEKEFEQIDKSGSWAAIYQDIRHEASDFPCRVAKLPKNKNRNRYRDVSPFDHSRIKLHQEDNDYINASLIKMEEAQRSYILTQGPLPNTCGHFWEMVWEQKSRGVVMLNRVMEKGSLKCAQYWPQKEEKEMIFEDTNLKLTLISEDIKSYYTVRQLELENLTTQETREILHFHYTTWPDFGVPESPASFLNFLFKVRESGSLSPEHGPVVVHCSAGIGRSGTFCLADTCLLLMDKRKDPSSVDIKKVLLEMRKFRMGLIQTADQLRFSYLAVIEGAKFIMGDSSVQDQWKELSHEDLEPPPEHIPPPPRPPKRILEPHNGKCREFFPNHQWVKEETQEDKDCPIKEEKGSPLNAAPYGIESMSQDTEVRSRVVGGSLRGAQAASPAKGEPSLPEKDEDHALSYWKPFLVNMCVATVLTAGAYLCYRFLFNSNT
The note with it: 25 °C. As to the method:
(§1) PTP assay were conducted at 25 C in 96-well plates. Reaction rates were determined using a Variokan plate reader from Thermo Electron. For assay pH 7.0 absorbance was measured every 30s over 10 min and the reaction rates were calculated by linear regression. Because the p-nitrophenol product does not absorb at pH 6.0.

The target of assay [2] is T2, Tyrosine-protein phosphatase non-receptor type 7 (Homo sapiens, UniProt P35236).
T2 sequence (P35236 whole entry): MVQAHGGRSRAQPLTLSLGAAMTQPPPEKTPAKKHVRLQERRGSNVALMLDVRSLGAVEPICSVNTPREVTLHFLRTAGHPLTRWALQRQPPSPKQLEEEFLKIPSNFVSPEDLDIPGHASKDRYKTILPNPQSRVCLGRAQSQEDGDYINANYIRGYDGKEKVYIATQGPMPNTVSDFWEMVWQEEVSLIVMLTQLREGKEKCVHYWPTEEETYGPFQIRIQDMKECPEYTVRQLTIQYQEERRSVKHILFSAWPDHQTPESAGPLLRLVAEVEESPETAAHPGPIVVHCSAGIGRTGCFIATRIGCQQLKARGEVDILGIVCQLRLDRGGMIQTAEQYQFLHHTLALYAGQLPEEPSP
The note with it: pH 7; 25 °C. The protocol: as §1

Assay [3] deals with T3, Tyrosine-protein phosphatase non-receptor type 2 (Homo sapiens, UniProt P17706).
T3 sequence (P17706 whole entry): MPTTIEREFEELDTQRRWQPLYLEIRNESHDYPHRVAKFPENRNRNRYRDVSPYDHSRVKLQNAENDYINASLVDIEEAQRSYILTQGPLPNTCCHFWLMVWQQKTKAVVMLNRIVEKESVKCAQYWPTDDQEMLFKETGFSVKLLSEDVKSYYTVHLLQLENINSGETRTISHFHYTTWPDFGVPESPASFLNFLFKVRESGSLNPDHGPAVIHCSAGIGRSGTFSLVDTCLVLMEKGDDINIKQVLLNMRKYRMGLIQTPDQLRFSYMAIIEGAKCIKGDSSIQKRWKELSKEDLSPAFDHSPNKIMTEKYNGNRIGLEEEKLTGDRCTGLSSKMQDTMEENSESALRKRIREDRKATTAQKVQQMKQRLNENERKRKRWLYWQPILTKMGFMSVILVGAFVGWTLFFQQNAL
The note with it: pH 7; 25 °C. As to the method:
as §1

Assay [4] addresses T4, Dual specificity protein phosphatase 22 (Homo sapiens, UniProt Q9NRW4).
T4 sequence (Q9NRW4 whole entry): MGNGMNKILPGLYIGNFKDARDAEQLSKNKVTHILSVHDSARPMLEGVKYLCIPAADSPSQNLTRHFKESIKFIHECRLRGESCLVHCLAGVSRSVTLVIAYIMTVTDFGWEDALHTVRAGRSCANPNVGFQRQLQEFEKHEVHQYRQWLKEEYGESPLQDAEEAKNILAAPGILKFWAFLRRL
The conditions noted are these: pH 6; 25 °C. As to the method: as §1

Assay [5] addresses Tyrosine-protein phosphatase non-receptor type 6 (Homo sapiens, UniProt P29350). The conditions noted are these: pH 7; 25 °C. The protocol:
as §1

The target in assay [6] is Tyrosine-protein phosphatase non-receptor type 13 (Homo sapiens, UniProt Q12923). The conditions noted are these: pH 7; 25 °C. The protocol:
as §1

In assay [7] the target is Receptor-type tyrosine-protein phosphatase F (Homo sapiens, UniProt P10586). The note with it: pH 6; 25 °C. As to the method: as §1

In BindingDB's records for doi:10.1002/cbic.200600287 (Mcgill University, 2007) one finds IC50 data, which are given here for 16 compounds.

Bounds are passed on as bounds.

Tyrosine-protein phosphatase non-receptor type 6, sequence (P29350 whole entry): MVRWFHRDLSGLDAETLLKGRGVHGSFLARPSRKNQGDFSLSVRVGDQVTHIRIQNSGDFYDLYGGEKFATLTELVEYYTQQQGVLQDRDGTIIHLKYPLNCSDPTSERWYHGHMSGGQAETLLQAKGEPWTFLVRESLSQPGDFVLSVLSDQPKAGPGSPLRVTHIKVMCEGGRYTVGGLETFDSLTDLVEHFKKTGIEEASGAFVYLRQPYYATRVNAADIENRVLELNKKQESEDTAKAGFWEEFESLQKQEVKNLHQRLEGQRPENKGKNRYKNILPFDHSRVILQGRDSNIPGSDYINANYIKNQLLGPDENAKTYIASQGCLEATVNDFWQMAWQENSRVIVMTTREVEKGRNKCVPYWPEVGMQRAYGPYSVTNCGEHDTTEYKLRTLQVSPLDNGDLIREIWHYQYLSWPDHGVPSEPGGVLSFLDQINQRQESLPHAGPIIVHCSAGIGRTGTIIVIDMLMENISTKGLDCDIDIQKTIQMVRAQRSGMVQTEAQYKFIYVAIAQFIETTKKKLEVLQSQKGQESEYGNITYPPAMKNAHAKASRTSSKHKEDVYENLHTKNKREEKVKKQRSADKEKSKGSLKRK
Receptor-type tyrosine-protein phosphatase F, sequence (P10586 whole entry): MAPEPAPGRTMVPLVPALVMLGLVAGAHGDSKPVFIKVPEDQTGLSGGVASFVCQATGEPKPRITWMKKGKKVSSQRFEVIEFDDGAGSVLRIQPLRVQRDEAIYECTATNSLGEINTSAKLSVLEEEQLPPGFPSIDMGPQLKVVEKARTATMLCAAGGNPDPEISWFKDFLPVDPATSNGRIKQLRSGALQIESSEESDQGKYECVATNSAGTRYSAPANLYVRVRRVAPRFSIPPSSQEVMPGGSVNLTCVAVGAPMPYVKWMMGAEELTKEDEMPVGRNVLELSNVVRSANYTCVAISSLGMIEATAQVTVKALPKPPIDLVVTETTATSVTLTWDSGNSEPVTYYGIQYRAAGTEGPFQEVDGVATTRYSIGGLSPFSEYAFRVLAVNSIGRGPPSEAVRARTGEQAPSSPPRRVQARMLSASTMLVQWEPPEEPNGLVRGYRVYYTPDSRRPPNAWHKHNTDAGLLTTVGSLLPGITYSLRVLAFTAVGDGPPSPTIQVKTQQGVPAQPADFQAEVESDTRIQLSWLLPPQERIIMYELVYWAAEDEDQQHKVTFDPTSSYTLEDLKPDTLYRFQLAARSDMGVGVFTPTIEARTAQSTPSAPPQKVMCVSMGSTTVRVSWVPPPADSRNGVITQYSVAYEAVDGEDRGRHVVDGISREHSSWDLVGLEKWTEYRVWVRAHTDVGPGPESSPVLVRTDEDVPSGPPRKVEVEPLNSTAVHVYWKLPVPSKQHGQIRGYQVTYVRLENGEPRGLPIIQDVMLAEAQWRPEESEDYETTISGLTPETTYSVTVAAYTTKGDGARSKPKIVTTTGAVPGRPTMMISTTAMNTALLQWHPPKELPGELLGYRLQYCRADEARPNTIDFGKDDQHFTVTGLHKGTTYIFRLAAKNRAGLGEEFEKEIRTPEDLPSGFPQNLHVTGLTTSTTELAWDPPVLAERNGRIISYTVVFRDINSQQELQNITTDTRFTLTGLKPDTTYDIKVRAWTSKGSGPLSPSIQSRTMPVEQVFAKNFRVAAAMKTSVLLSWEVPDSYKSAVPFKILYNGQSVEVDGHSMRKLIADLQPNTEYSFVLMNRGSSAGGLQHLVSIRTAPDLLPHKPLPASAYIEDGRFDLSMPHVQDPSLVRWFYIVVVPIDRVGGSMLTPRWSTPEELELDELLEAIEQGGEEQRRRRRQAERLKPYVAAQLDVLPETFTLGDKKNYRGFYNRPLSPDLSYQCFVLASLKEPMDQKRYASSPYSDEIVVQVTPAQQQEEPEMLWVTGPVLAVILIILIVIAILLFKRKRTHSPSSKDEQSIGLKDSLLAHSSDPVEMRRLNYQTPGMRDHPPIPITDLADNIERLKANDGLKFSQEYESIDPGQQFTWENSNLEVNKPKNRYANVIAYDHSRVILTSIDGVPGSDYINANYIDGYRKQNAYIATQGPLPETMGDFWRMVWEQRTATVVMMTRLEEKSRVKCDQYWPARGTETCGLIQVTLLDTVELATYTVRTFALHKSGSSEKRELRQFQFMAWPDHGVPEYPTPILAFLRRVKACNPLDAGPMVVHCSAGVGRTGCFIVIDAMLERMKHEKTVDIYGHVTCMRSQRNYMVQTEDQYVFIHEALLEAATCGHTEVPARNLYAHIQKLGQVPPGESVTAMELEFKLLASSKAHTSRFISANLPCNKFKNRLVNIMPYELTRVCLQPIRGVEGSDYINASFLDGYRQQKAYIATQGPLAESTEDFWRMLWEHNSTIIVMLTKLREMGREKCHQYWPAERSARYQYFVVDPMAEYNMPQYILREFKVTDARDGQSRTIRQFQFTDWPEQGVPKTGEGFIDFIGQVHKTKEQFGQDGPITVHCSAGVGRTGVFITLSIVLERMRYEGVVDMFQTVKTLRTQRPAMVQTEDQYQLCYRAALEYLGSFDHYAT
Tyrosine-protein phosphatase non-receptor type 13, sequence (Q12923 whole entry): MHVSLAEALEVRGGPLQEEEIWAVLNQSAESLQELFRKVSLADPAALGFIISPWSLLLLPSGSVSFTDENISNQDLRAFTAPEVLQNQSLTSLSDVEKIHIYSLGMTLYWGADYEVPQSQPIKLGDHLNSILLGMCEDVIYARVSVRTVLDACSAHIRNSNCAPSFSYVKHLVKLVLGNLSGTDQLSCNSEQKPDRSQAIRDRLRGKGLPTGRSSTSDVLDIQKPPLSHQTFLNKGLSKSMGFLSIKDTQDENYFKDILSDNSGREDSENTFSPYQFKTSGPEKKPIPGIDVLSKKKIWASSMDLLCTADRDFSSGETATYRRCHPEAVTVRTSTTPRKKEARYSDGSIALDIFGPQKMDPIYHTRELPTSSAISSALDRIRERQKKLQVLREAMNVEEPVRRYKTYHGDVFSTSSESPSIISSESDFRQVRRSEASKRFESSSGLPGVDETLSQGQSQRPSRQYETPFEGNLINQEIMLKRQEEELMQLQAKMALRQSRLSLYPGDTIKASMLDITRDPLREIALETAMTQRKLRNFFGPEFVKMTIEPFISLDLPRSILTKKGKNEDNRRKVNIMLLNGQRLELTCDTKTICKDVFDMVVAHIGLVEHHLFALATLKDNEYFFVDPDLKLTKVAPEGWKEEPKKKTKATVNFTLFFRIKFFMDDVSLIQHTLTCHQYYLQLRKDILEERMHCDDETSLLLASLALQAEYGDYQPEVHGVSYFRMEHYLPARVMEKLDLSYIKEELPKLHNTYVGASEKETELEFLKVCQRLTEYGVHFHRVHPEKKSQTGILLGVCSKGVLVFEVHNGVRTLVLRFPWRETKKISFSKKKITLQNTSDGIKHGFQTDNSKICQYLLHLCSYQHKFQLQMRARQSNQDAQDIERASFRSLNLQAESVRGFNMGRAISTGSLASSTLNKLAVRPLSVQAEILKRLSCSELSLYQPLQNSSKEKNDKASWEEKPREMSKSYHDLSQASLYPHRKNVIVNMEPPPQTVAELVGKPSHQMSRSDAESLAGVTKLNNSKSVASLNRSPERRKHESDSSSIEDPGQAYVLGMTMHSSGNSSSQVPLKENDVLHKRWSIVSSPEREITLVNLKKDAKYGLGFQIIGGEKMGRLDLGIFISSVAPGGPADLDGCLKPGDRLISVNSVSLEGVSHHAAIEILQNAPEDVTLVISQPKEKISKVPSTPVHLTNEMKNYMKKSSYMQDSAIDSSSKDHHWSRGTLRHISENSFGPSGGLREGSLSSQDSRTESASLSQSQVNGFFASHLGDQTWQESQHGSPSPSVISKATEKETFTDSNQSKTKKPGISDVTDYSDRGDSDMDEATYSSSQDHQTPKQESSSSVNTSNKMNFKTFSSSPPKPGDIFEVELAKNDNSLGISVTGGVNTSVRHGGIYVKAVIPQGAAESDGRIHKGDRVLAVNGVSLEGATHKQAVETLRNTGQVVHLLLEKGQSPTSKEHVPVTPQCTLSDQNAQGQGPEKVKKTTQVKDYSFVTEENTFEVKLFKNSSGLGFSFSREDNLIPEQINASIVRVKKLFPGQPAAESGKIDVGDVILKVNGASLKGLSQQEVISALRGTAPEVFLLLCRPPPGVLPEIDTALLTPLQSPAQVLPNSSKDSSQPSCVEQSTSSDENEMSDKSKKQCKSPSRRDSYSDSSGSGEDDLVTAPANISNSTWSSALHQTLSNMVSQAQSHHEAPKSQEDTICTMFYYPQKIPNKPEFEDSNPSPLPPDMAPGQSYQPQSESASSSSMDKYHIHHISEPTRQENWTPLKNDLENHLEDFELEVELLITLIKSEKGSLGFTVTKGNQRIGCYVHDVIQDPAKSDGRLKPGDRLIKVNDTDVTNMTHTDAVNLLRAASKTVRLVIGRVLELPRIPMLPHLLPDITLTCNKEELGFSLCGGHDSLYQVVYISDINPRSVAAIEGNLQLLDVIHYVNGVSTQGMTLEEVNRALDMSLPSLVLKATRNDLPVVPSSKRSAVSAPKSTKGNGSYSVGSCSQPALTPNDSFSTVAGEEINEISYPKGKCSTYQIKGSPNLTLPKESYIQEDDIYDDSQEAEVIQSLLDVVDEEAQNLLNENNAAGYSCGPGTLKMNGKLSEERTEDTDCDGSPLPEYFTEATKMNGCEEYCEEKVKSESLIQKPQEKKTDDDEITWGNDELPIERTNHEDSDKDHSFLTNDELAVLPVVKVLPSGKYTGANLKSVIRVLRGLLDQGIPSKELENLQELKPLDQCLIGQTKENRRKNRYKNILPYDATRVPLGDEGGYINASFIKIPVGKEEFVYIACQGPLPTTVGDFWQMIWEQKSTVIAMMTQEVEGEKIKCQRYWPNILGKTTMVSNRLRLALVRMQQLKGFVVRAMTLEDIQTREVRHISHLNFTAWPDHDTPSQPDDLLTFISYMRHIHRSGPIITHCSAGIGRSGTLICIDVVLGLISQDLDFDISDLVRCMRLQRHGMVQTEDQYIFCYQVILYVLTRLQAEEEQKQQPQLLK

The term IC50 denotes the point on the concentration scale where inhibition reaches its midpoint. Low readings indicate greater potency, high ones weaker potency. The compound `COc1ccc(N2C(=O)/C(=C/c3cc(OC)c(O)c([N+](=O)[O-])c3)SC2=S)cc1` [Thioxothiazolidinone derivative, 10] came in with an IC50 in assay [1] of 6.3 µM. The same measure, in the same setting: then `COc1cc(/C=C2\SC(=S)N(c3ccccc3)C2=O)cc([N+](=O)[O-])c1O` [Thioxothiazolidinone derivative, 3], with greater than 100 µM; and `COc1cc(C=C2SC(=S)N(c3cccc(Cl)c3)C2=O)cc(CP(=O)(O)O)c1O` [Thioxothiazolidinone derivative, 18], with greater than 100 µM. As for `COc1cc(/C=C2\SC(=S)N(c3cccc(Cl)c3)C2=O)cc([N+](=O)[O-])c1O` [Thioxothiazolidinone derivative, 1], the IC50 in assay [2] is 9.3 µM; in assay [3], 5.3 µM; in assay [1] (pH 6), 4.3 µM; in assay [1] (pH 7), 4.1 µM; in assay [4] it was greater than 50 µM; in assay [5], 3.9 µM. Moreover, the IC50 is 3.7 µM in assay [6] and greater than 50 µM in assay [7]. Turning to `COc1cc(/C=C2\SC(=S)N(c3ccc(Cl)c(Cl)c3)C2=O)cc([N+](=O)[O-])c1O` [Thioxothiazolidinone derivative, 12], half-maximal inhibition in assay [1] (IC50) was put at 7 µM. For `COc1cccc(N2C(=O)/C(=C/c3cc(OC)c(O)c([N+](=O)[O-])c3)SC2=S)c1` [Thioxothiazolidinone derivative, 7], the IC50 in assay [1] turned out to be 16 µM. `COc1cc(/C=C2\SC(=S)N(c3ccc([N+](=O)[O-])cc3)C2=O)cc([N+](=O)[O-])c1O` [Thioxothiazolidinone derivative, 11] registered a 50% inhibitory concentration (IC50) in assay [1] of 7 µM. On the same count and under the same terms, then `COc1cc(/C=C2\SC(=S)N(c3cccc(Cl)c3)C2=O)ccc1O` [Thioxothiazolidinone derivative, 14], with 44 µM; and `O=C1/C(=C/c2ccc(O)c([N+](=O)[O-])c2)SC(=S)N1c1cccc(Cl)c1` [Thioxothiazolidinone derivative, 13], with 68 µM. In turn, `COc1cc(/C=C2\SC(=S)N(c3cccc(C)c3)C2=O)cc([N+](=O)[O-])c1O` [Thioxothiazolidinone derivative, 6] gave an IC50 in assay [1] of 29 µM. The same measure, in the same setting: then `COc1cc(/C=C2\SC(=S)N(c3cccc(F)c3)C2=O)cc([N+](=O)[O-])c1O` [Thioxothiazolidinone derivative, 5], with 12 µM; and `O=C1/C(=C/c2cc(O)c(O)c([N+](=O)[O-])c2)SC(=S)N1c1cccc(Cl)c1` [Thioxothiazolidinone derivative, 15], with 18.1 µM. On the same count and under the same terms, then `COc1cc(/C=C2\SC(=S)N(c3ccc(C)cc3)C2=O)cc([N+](=O)[O-])c1O` [Thioxothiazolidinone derivative, 9], with 8.8 µM; and `COc1cc(/C=C2\SC(=S)N(c3ccc(Cl)cc3)C2=O)cc([N+](=O)[O-])c1O` [Thioxothiazolidinone derivative, 4], with 5.4 µM; and `COc1cc(/C=C2\SC(=S)N(c3ccc(O)cc3)C2=O)cc([N+](=O)[O-])c1O` [Thioxothiazolidinone derivative, 8], with 29 µM.

With `COc1cc(/C=C2\SC(=S)N(c3cccc(Cl)c3)C2=O)cc(C(=O)O)c1O` [Thioxothiazolidinone derivative, 17], the 50% inhibitory concentration (IC50) in assay [1] was determined as 7.3 µM.
